Several values for one entry are separate records, joined by “and”; a condition that tells them apart may be missing. Equal values may be shown once. Starred links: 1 amine or outer side, 2 acyl side, 3 side chain; linkers in the order of their positions; H or OH if unused. Positions of bridges follow the written chain, without caps; N, C: chain ends. Non-standard residues stand in square brackets, D forms with d. Residues, ends and D or L forms follow the SMILES beside them. *: point of attachment. hTyr(3S-OH,4S-OH,3'-OSO3H) = N[C@H](C(=O)O)[C@H](O)[C@@H](O)c1ccc(O)c(OS(=O)(=O)O)c1; Orn(4R-OH,5R-OH) = O=C([C@H](C[C@@H](O)[C@@H](O)N[*:3])N[*:1])[*:2]; Pro(3S-OH,4S-Me) = C[C@H]1CN[C@H](C(=O)O)[C@H]1O; X1 = CCCCCOc1ccc(-c2cc(-c3ccc(C(=O)*)cc3)no2)cc1; Gln(3R-OH) = NC(=O)C[C@@H](O)[C@H](N)C(=O)O; Hyp = O=C(O)[C@@H]1C[C@@H](O)CN1
What was measured:
[1] = test system: Trichosporon asahii and Saksenaea species; experiment: Tissue, wound, blood and bone cultures of the fungal wound sepsis patient; type: in vivo, human; details: posaconazole, amphotericin B and micafungin together, before IL-7
Source text: They were aggressively treated with daily or alternating-day operative debridement, broad-spectrum parenteral and topical antibacterial and antifungal therapy. Antimicrobial therapy included ceftazidime, metronidazole, trimethoprim-sulfamethoxazole, micafungin, amphotericin B, and posaconazole (FIG. 29), as well as VERAFLO vac instillation of antimicrobials into the wound bed. The patient's polymicrobial soft tissue infection continued to advance and was accompanied by multisystem organ failure and shock. Over a 4-week period, they required debridement of >3000 cm^2 of skin, subcutaneous tissue, and muscle involving the entire perineum, bilateral thighs, buttocks, and circumferential abdominal wall (FIG. 28B).
Tissue histology also became negative for fungus at approximately the same time as tissue cultures (FIG. 28E).

Saksenaea isolate = experiment: CLSI broth dilution antifungal susceptibility testing; details: Saksenaea isolate from patient wound, CLSI broth dilution reference method
mucormycosis = details: nivolumab (anti-PD-1) and IFN-γ together, Belgian bomb blast victim, reference 5; cited from earlier work
[2] = test system: peripheral blood mononuclear cells (T cell IFN-γ production); type: cell-based, human

For `C[C@@H]1[C@H](O)[C@@H](C)/C=C/C=C/C=C/C=C/C=C/C=C/C=C/[C@H](O[C@@H]2O[C@H](C)[C@@H](O)[C@H](N)[C@@H]2O)C[C@@H]2O[C@](O)(C[C@@H](O)C[C@@H](O)[C@H](O)CC[C@@H](O)C[C@@H](O)CC(=O)O[C@H]1C)C[C@H](O)[C@H]2C(=O)O` [amphotericin B], the “wound cultures for Trichosporon asahii and Saksenaea species despite triple antifungal therapy” value (“wound cultures” below) [1] was “persistently positive” and the Drug sensitivities (Saksenaea isolate) was under 0.03 µg/mL.

For “IFN-γ: interferon-γ given as immune-adjuvant therapy”, the “outcome of immune-adjuvant therapy in refractory mucormycosis” value (mucormycosis) is listed as “rapid clinical improvement, enhanced immune phenotypic markers, and fungal elimination”.

In the case of `C[C@@H]1C[C@H]2[C@@H]3CCC4=CC(=O)C=C[C@]4(C)[C@@]3(F)[C@@H](O)C[C@]2(C)[C@@]1(O)C(=O)COP(=O)(O)O` [dexamethasone, dexamethasone phosphate], the “decrease in IFN-γ production (ELISpot total well intensity)” value [2] is reported as 61% and 58% and the “reduction in the number of IFN-γ secreting cells” value [2] is reported as 30% and 49%.

In the case of `C[C@@H](c1nc(-c2ccc(C#N)cc2)cs1)[C@](O)(Cn1cncn1)c1cc(F)ccc1F` [isavuconazole], the Drug sensitivities (Saksenaea isolate) is reported as 1 µg/mL.

In the case of nivolumab [reference compound], the “outcome of immune-adjuvant therapy in refractory mucormycosis” value (mucormycosis) is given as “rapid clinical improvement, enhanced immune phenotypic markers, and fungal elimination”.

For `CC[C@@H]([C@H](C)O)n1ncn(-c2ccc(N3CCN(c4ccc(OC[C@@H]5CO[C@@](Cn6cncn6)(c6ccc(F)cc6F)C5)cc4)CC3)cc2)c1=O` [posaconazole], the “wound cultures” value [1] was “persistently positive” and the Drug sensitivities (Saksenaea isolate) was 0.25 µg/mL.

In the case of `CCCCCOc1ccc(-c2cc(-c3ccc(C(=O)N[C@H]4C[C@@H](O)[C@@H](O)NC(=O)[C@@H]5[C@@H](O)[C@@H](C)CN5C(=O)[C@H]([C@H](O)CC(N)=O)NC(=O)[C@H]([C@H](O)[C@@H](O)c5ccc(O)c(OS(=O)(=O)O)c5)NC(=O)[C@@H]5C[C@@H](O)CN5C(=O)[C@H]([C@@H](C)O)NC4=O)cc3)no2)cc1` [micafungin] (X1-[Orn(4R-OH,5R-OH)]T[Hyp][hTyr(3S-OH,4S-OH,3'-OSO3H)][Gln(3R-OH)][Pro(3S-OH,4S-Me)]; lactam 1-C), the “wound cultures” value [1] is reported as “persistently positive”.
